Assay results published in patent US6613880B2, “Pipecolic acid derivatives of proline threonine amides useful for the treatment of rheumatoid arthritis” (Pharmacia Corporation, priority 1995, dated 2003).
Square brackets hold non-standard residues; d marks the D form. Peptide text beside a SMILES is read from it. * marks the point of attachment. ξ: configuration not given here. Butanoyl(3S-cHex) = C[C@@H](CC(=O)*)C1CCCCC1; Propanoyl(3-cHex) = O=C(CCC1CCCCC1)*; Thr(3ξ) = CC(O)[C@H](N)C(=O)O; Leu(ol) = CC(C)C[C@H](N)CO; Pip = O=C(O)[C@@H]1CCCCN1; NHPr = CCCN*

Target: T1, DR(αβ1*0401) molecules (DR4) (Homo sapiens, UniProt P01903+P01911, A100K/A169T/F76Y/I96L/K127E/L162R/M171V/N62H/P40V/Q125Y/R42H/S133A/S149N/S66Y/V115G/V209L/W38E)
T1 construct: made in house
Experiment: Competitive Binding for DR4 (Competition Capture ELISA)
Conditions: competition with 50 nM biotinylated ML37-49 peptide for immunoaffinity purified DRB1*0401, pH 5.5, overnight at 37° C.
Experimental: Competitive Binding for DR4 (Competition Capture ELISA)
DR(αβ1*0401) molecules are affinity purified with L243 monoclonal antibody (hybridoma obtained from ATCC) using a modification of a published procedure (Gorga, J. C., et al., 1991. Res. Immunol. 142:401-407.). Duplicate samples of immunoaffinity purified DRB1*0401 molecules (0.5 μg/well) are incubated overnight at 37° C. with 50 nM biotinylated ML37-49 peptide in the presence or absence of 1 nM to 100 μM competitor peptides in 96-well polypropylene microtiter plates (Costar, Cambridge, Mass.). All dilutions are made in phosphate buffered saline, pH 5.5 containing 1% octaglucoside (Boehringher Mannheim). LB3.1 antibody (obtained from J. Strominger, Cambridge, Mass.) is plated onto flat-bottom 96-well polystyrene microtiter plates (Falcon, Becton-Dickinson, Mountainview, Calif.) in 0.1 M carbonate coating buffer, pH 9.6 overnight at 4° C. Antibody coated microtiter plates are blocked with 1% Carnation nonfat milk for 1 hr at room temperature. The plates are washed 3 times with PBS containing 0.05% Tween 20 (Biorad, Hercules, Calif.). The class II/peptide mixtures are added, incubated for 1 hr at 37° C., and washed as described above. Extravidin conjugated horseradish peroxidase (1:1000, Sigma Chemicals) is added to the wells and incubated for 30-60 min at 37° C. The plates are washed again, then incubated with o-phenylenediamine dihydrochloride and H2O2 (Sigma Chemicals, St. Louis, Mo.) in 0.5 M phosphate-citrate buffer, pH 5.0. The absorbance of each well is read at 450 nm.

| Compound | IC50 [nM] |
| --- | --- |
| CCCNC(=O)[C@@H](NC(=O)[C@@H]1CCCN1C(=O)[C@H](CC(=O)O)NC(=O)[C@@H]1CCCCN1C(=O)[C@@H](NC(=O)C[C@H](C)C1CCCCC1)C(C)C)C(C)O (stereo partly drawn) [Example 1, (S)-CBA-Val-Pec-Asp-Pro-Thr-propylamide] ({Butanoyl(3S-cHex)}-V[Pip]DP[Thr(3ξ)]-NHPr) | 30 |
| (S)-CBA-Lys-Pec-Asp-Pro-Thr-propylamide [Example 2] | 289 |
| CC(C)C[C@@H](CO)NC(=O)[C@@H](NC(=O)[C@@H]1CCCN1C(=O)[C@H](CC(=O)O)NC(=O)[C@@H]1CCCCN1C(=O)[C@H](CCCCN)NC(=O)C[C@H](C)C1CCCCC1)[C@@H](C)O [Example 4, (S)-CBA-Lys-Pec-Asp-Pro-Thr-leucinol] ({Butanoyl(3S-cHex)}-K[Pip]DPT[Leu(ol)]) | 116 |
| CCCNC(=O)[C@@H](NC(=O)[C@@H]1CCCN1C(=O)[C@H](CC(=O)O)NC(=O)[C@@H]1CCCCN1C(=O)[C@H](CCCCN)NC(=O)CCC1CCCCC1)[C@@H](C)O [Example 3, CPA-Lys-Pec-Asp-Pro-Thr-propylamide] ({Propanoyl(3-cHex)}-K[Pip]DPT-NHPr) | 259 |
